The target in the test is human GLP-1R (Homo sapiens, UniProt P43220, G168S). As to the kind of experiment: CHO GLP-1R Clone H6 cAMP HTRF agonist assay (Assay 1, high receptor density). Format: cell-based. As to conditions: for EC50: CHO GLP-1R clone H6, cAMP HTRF, geometric mean; for Emax: CHO GLP-1R clone H6, arithmetic mean, relative to saturating GLP-1 (1 μM), read-out: Assay 1 Emax (%). An excerpt: In Table 5 and Table 6, assay data are presented to two (2) significant figures as the geometric mean (EC50s) and arithmetic mean (Emax) based on the number of replicates listed (Number). A blank cell means there was no data for that Example or the Emax was not calculated.
human GLP-1R, sequence (P43220 24-463 G168S): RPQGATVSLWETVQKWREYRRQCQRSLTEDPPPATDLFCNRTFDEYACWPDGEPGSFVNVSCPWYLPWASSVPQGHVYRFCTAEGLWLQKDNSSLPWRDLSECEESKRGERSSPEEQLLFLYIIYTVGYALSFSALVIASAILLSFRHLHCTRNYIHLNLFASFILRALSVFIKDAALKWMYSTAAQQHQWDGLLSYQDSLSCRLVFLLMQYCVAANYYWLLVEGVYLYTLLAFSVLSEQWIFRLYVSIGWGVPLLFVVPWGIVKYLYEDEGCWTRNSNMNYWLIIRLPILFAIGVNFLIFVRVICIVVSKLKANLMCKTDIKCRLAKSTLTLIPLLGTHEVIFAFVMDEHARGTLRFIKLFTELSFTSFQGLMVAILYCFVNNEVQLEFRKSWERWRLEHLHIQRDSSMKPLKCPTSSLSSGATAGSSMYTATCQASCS

SMILES strings stand for the structures.

Broadly, the EC50 is the concentration giving half of the maximal effect. A lower EC50 goes with greater potency. As a reminder, the Emax is the greatest response seen or fitted, relative to the assay's reference. Regarding `CC1(Cn2c(CN3CCC(c4cccc(OCc5ccc(Cl)cc5F)n4)CC3)nc3ccc(C(=O)O)cc32)CCO1` (stereo not drawn) [Compound 265B, 2-[(4-{6-[(4-chloro-2-fluorobenzyl)oxy]pyridin-2-yl}piperidin-1-yl)methyl]-1-[(2-methyloxetan-2-yl)methyl]-1H-benzimidazole-6-carboxylic acid], the EC50 was greater than 15000 nM and the Emax turned out to be 100%.

As for `COCCn1c(CN2CCC(c3cccc(OCc4ccc(Cl)cc4F)n3)CC2)nc2ccc(C(=O)O)nc21` [Compound 213B, 2-[(4-{6-[(4-chloro-2-fluorobenzyl)oxy]pyridin-2-yl}piperidin-1-yl)methyl]-3-(2-methoxyethyl)-3H-imidazo[4,5-b]pyridine-5-carboxylic acid], the midpoint of the response, the EC50, lay at 390 nM and the Emax turned out to be 82%.

As to `Cn1cncc1Cn1c(CN2CCC(c3cccc(OCc4ccc(F)cc4F)n3)CC2)nc2ccc(C(=O)O)cc21` [Compound 186B, 2-[(4-{6-[(2,4-difluorobenzyl)oxy]pyridin-2-yl}piperidin-1-yl)methyl]-1-[(1-methyl-1H-imidazol-5-yl)methyl]-1H-benzimidazole-6-carboxylic acid], the EC50 was 1700 nM and the Emax stood at 82%.

Consider `CC1(C)CC(Cn2c(CN3CCC(c4cccc(OCc5ccc(Cl)cc5F)n4)CC3)nc3ccc(C(=O)O)cc32)O1` (stereo not drawn) [Compound 235B, 2-[(4-{6-[(4-chloro-2-fluorobenzyl)oxy]pyridin-2-yl}piperidin-1-yl)methyl]-1-[(4,4-dimethyloxetan-2-yl)methyl]-1H-benzimidazole-6-carboxylic acid], for which the EC50 was 390 nM and the Emax worked out at 72%.

On to `COCCn1c(CN2CCN(c3nc(OCc4ccc(Cl)cc4F)ccc3F)CC2)nc2ccc(C(=O)O)cc21` [Compound 179B, 2-[(4-{6-[(4-chloro-2-fluorobenzyl)oxy]-3-fluoropyridin-2-yl}piperazin-1-yl)methyl]-1-(2-methoxyethyl)-1H-benzimidazole-6-carboxylic acid], for which the EC50 was 1600 nM and the Emax was found to be 83%.

As for `Cc1nc(C(C)n2c(CN3CCC(c4cccc(OCc5ccc(Cl)cc5F)n4)CC3)nc3ccc(C(=O)O)cc32)n[nH]1` (stereo not drawn) [Compound 342B, 2-[(4-{6-[(4-chloro-2-fluorobenzyl)oxy]pyridin-2-yl}piperidin-1-yl)methyl]-1-[1-(5-methyl-1H-1,2,4-triazol-3-yl)ethyl]-1H-benzimidazole-6-carboxylic acid], the EC50 came to 1300 nM and the Emax was 42%.

`CC(F)(F)Cn1c(CN2CCC(c3cccc(OCc4ccc(Cl)cc4F)n3)CC2)nc2ccc(C(=O)O)cc21` [Compound 302B, 2-[(4-{6-[(4-chloro-2-fluorobenzyl)oxy]pyridin-2-yl}piperidin-1-yl)methyl]-1-(2,2-difluoropropyl)-1H-benzimidazole-6-carboxylic acid]: it took 130 nM to reach a half-maximal effect (EC50) and the Emax was determined as 80%.

With `COCCn1c(CN2CCN(c3cccc(OCc4ccc(Cl)cc4F)n3)C[C@@H]2C2CC2)nc2ccc(C(=O)O)cc21` [Compound 350B, 2-{[(2S)-4-{6-[(4-chloro-2-fluorobenzyl)oxy]pyridin-2-yl}-2-cyclopropylpiperazin-1-yl]methyl}-1-(2-methoxyethyl)-1H-benzimidazole-6-carboxylic acid], a half-maximal effect (EC50) was put at 420 nM and the Emax was 81%.

Turning to `O=C(O)c1ccc2nc(CN3CCN(c4cccc(OCc5ccc(Cl)cc5F)n4)CC3)n(C[C@@H]3CCO3)c2c1` [Compound 119B, 2-[(4-{6-[(4-chloro-2-fluorobenzyl)oxy]pyridin-2-yl}piperazin-1-yl)methyl]-1-[(2S)-oxetan-2-ylmethyl]-1H-benzimidazole-6-carboxylic acid], the EC50 was determined as 210 nM and the Emax worked out at 66%.

`O=C(O)c1ccc2nc(CN3CCC(c4cccc(OCc5ccc(Cl)cc5F)n4)CC3)n(CCN3CCCOC3=O)c2c1` [Compound 305B, 2-[(4-{6-[(4-chloro-2-fluorobenzyl)oxy]pyridin-2-yl}piperidin-1-yl)methyl]-1-[2-(2-oxo-1,3-oxazinan-3-yl)ethyl]-1H-benzimidazole-6-carboxylic acid]: the midpoint of the response, the EC50, lay at 190 nM and the Emax was determined as 86%.

Take `Cn1cc(CCn2c(CN3CCC(c4cccc(OCc5ccc(Cl)cc5F)n4)CC3)nc3ccc(C(=O)O)cc32)cn1` [Compound 307B, 2-[(4-{6-[(4-chloro-2-fluorobenzyl)oxy]pyridin-2-yl}piperidin-1-yl)methyl]-1-[2-(1-methyl-1H-pyrazol-4-yl)ethyl]-1H-benzimidazole-6-carboxylic acid]: the EC50 is 210 nM and the Emax was 77%.

Consider `CCN1CCC[C@@H]1Cn1c(CN2CCC(c3cccc(OCc4ccc(Cl)cc4F)n3)CC2)nc2ccc(C(=O)O)cc21` [Compound 329B, 2-[(4-{6-[(4-chloro-2-fluorobenzyl)oxy]pyridin-2-yl}piperidin-1-yl)methyl]-1-{[(2R)-1-ethylpyrrolidin-2-yl]methyl}-1H-benzimidazole-6-carboxylic acid], for which it took 4000 nM to reach a half-maximal effect (EC50) and the Emax was 91%.

Regarding `O=C(O)c1ccc2nc(CN3CCC(c4cccc(OCc5ccc(Cl)cc5F)n4)CC3)n(CC3CCCCO3)c2c1` (stereo not drawn) [Compound 323B, 2-[(4-{6-[(4-chloro-2-fluorobenzyl)oxy]pyridin-2-yl}piperidin-1-yl)methyl]-1-(tetrahydro-2H-pyran-2-ylmethyl)-1H-benzimidazole-6-carboxylic acid], it took 1600 nM to reach a half-maximal effect (EC50) and the Emax was 80%.

In turn, `CN1CC[C@@H]1Cn1c(CN2CCC(c3cccc(OCc4ccc(Cl)cc4F)n3)CC2)nc2ccc(C(=O)O)cc21` (stereo in doubt) [Compound 275B, 2-[(4-{6-[(4-chloro-2-fluorobenzyl)oxy]pyridin-2-yl}piperidin-1-yl)methyl]-1-[(1-methylazetidin-2-yl)methyl]-1H-benzimidazole-6-carboxylic acid] returned an EC50 greater than 20000 nM.

For `COCCCn1c(CN2CCC(c3cccc(OCc4ccc(Cl)cc4F)n3)CC2)nc2ccc(C(=O)O)cc21` [Compound 313B, 2-[(4-{6-[(4-chloro-2-fluorobenzyl)oxy]pyridin-2-yl}piperidin-1-yl)methyl]-1-(3-methoxypropyl)-1H-benzimidazole-6-carboxylic acid], the EC50 turned out to be 380 nM and the Emax stood at 75%.

Consider `CO[C@@H]1CCC[C@H]1n1c(CN2CCC(c3cccc(OCc4ccc(Cl)cc4F)n3)CC2)nc2ccc(C(=O)O)cc21` (stereo in doubt) [Compound 194B, 2-[(4-{6-[(4-chloro-2-fluorobenzyl)oxy]pyridin-2-yl}piperidin-1-yl)methyl]-1-[(1R,2R)-2-methoxycyclopentyl]-1H-benzimidazole-6-carboxylic acid], for which the EC50 was 75 nM and the Emax came out at 69%.

In the case of `C[C@H]1CN(c2cccc(OCc3ccc(C#N)cc3F)n2)CCN1Cc1nc2ccc(C(=O)O)cc2n1C[C@H]1CCOC1` [Compound 267B, 2-{[(2S)-4-{6-[(4-cyano-2-fluorobenzyl)oxy]pyridin-2-yl}-2-methylpiperazin-1-yl]methyl}-1-[(3R)-tetrahydrofuran-3-ylmethyl]-1H-benzimidazole-6-carboxylic acid], the EC50 was greater than 19000 nM and the Emax is 100%.

On to `COCc1cc(Cn2c(CN3CCC(c4cccc(OCc5ccc(Cl)cc5F)n4)CC3)nc3ccc(C(=O)O)cc32)[nH]n1` [Compound 337B, 2-[(4-{6-[(4-chloro-2-fluorobenzyl)oxy]pyridin-2-yl}piperidin-1-yl)methyl]-1-{[3-(methoxymethyl)-1H-pyrazol-5-yl]methyl}-1H-benzimidazole-6-carboxylic acid], for which the EC50 came to 560 nM and the Emax came out at 72%.

Consider `COCCn1c(CN2CCN(c3cccc(OCc4ccc(C#N)cc4)n3)CC2)nc2ccc(C(=O)O)cc21` [Compound 171B, 2-[(4-{6-[(4-cyanobenzyl)oxy]pyridin-2-yl}piperazin-1-yl)methyl]-1-(2-methoxyethyl)-1H-benzimidazole-6-carboxylic acid], for which the EC50 came to 200 nM and the Emax turned out to be 79%.

Turning to `O=C(O)c1ccc2nc(CN3CCC(c4cccc(OCc5ccc(Cl)cc5F)n4)CC3)n(CCN3CCOCC3)c2c1` [Compound 325B, 2-[(4-{6-[(4-chloro-2-fluorobenzyl)oxy]pyridin-2-yl}piperidin-1-yl)methyl]-1-[2-(morpholin-4-yl)ethyl]-1H-benzimidazole-6-carboxylic acid], the EC50 is 2200 nM and the Emax was determined as 87%.

`O=C(O)c1ccc2nc(CN3CCC(c4cccc(OCc5ccc(Cl)cc5F)n4)CC3)n(Cc3cnc[nH]3)c2c1` [Compound 312B, 2-[(4-{6-[(4-chloro-2-fluorobenzyl)oxy]pyridin-2-yl}piperidin-1-yl)methyl]-1-(1H-imidazol-5-ylmethyl)-1H-benzimidazole-6-carboxylic acid]: the EC50 is 380 nM and the Emax came to 68%.

For the compound `COCCn1c(CN2CCC(c3cccc(OCc4ccccc4)n3)CC2)nc2ccc(C(=O)O)cc21` [Compound 181B, 2-({4-[6-(benzyloxy)pyridin-2-yl]piperidin-1-yl}methyl)-1-(2-methoxyethyl)-1H-benzimidazole-6-carboxylic acid], the response was half-maximal at 170 nM (EC50) and the Emax stood at 68%.

As for `CN1CCC[C@@H]1Cn1c(CN2CCC(c3cccc(OCc4ccc(Cl)cc4F)n3)CC2)nc2ccc(C(=O)O)cc21` [Compound 309B, 2-[(4-{6-[(4-chloro-2-fluorobenzyl)oxy]pyridin-2-yl}piperidin-1-yl)methyl]-1-{[(2R)-1-methylpyrrolidin-2-yl]methyl}-1H-benzimidazole-6-carboxylic acid], the response was half-maximal at 300 nM (EC50) and the Emax came to 66%.

These data come from patent publication US20250235460A1, “COMBINATION THERAPY USING GLUCOSE-DEPENDENT INSULINOTROPIC POLYPEPTIDE RECEPTOR ANTAGONIST COMPOUNDS AND GLP-1 RECEPTOR AGONIST COMPOUNDS” (Pfizer Inc., priority 2024, published 2025).
